Results on 20 compounds are retold here after patent US20230340011A1 (Asteroid Therapeutics, priority 2022, published 2023).

The target of the experiment is SREBP-2 (Homo sapiens (Human), UniProt Q12772). The experiment can be described thus: In vitro assay SREBP-2: PathHunter U2OS SREBP-2 Nuclear Translocation Cell Line, U18666A-stimulated. Type of experiment: cell-based. To be noted: PathHunter U2OS SREBP-2 nuclear translocation cells, U18666A 10 μM, overnight (16 hours).
Compound `C#CC1(O)CCN(C(=O)CC[C@@H](C)[C@H]2CC[C@H]3[C@@H]4CC=C5C[C@@H](O)CC[C@]5(C)[C@H]4CC[C@]23C)CC1` [Example 147, (R)-1-(4-ethynyl-4-hydroxypiperidin-1-yl)-4-((3S,8S,9S,10R,13R,14S,17R)-3-hydroxy-10,13-dimethyl-2,3,4,7,8,9,10,11,12,13,14,15,16,17-tetradecahydro-1H-cyclopenta[a]phenanthren-17-yl)pentan-1-one] showed an IC50 below 250 nM.

Consider `CC(=N)N1CCN(C(=O)CC[C@@H](C)[C@H]2CC[C@H]3[C@@H]4CC=C5C[C@@H](O)CC[C@]5(C)[C@H]4CC[C@]23C)CC1` [Example 459, (R)-4-((3S,8S,9S,10R,13R,14S,17R)-3-hydroxy-10,13-dimethyl-2,3,4,7,8,9,10,11,12,13,14,15,16,17-tetradecahydro-1H-cyclopenta[a]phenanthren-17-yl)-1-(4-(1-iminoethyl)piperazin-1-yl)pentan-1-one], for which the IC50 was 250 to 1000 nM.

Take `COC(=O)NC[C@@H](C)[C@H]1CC[C@H]2[C@@H]3CC=C4C[C@@H](O)CC[C@]4(C)[C@H]3CC[C@]12C` [Example 463, methyl ((S)-2-((3S,8S,9S,10R,13S,14S,17R)-3-hydroxy-10,13-dimethyl-2,3,4,7,8,9,10,11,12,13,14,15,16,17-tetradecahydro-1H-cyclopenta[a]phenanthren-17-yl)propyl)carbamate]: the IC50 lay within 250 to 1000 nM.

`C[C@H](CCC(=O)N1CCC[C@@H](Oc2cnn(C)c2)C1)[C@H]1CC[C@H]2[C@@H]3CC=C4C[C@@H](O)CC[C@]4(C)[C@H]3CC[C@]12C` [Example 518, (4R)-4-[(1R,3aS,3bS,7S,9aR,9bS,11aR)-7-hydroxy-9a,11a-dimethyl-1H,2H,3H,3aH,3bH,4H,6H,7H,8H,9H,9aH,9bH,10H,11H,11aH-cyclopenta[a]phenanthren-1-yl]-1-[(3R)-3-[(1-methyl-1H-pyrazol-4-yl)oxy]piperidin-1-yl]pentan-1-one]: the IC50 was below 250 nM.

`C[C@H](COc1ccc(CO)cn1)[C@H]1CC[C@H]2[C@@H]3CC=C4C[C@@H](O)CC[C@]4(C)[C@H]3CC[C@]12C` [Example 259, (3S,8S,9S,10R,13S,14S,17R)-17-((S)-1-((5-(hydroxymethyl)pyridin-2-yl)oxy)propan-2-yl)-10,13-dimethyl-2,3,4,7,8,9,10,11,12,13,14,15,16,17-tetradecahydro-1H-cyclopenta[a]phenanthren-3-ol] displayed a half-maximal inhibitory concentration (IC50) of 250 to 1000 nM.

The compound `C[C@H](CCC(=O)N1CCCC(c2ccncc2)C1)[C@H]1CC[C@H]2[C@@H]3CC=C4C[C@@H](O)CC[C@]4(C)[C@H]3CC[C@]12C` (stereo partly drawn) [Example 346, (4R)-4-((3S,8S,9S,10R,13R,14S,17R)-3-hydroxy-10,13-dimethyl-2,3,4,7,8,9,10,11,12,13,14,15,16,17-tetradecahydro-1H-cyclopenta[a]phenanthren-17-yl)-1-(3-(pyridin-4-yl)piperidin-1-yl)pentan-1-one] came in with a half-maximal inhibitory concentration (IC50) below 250 nM.

The compound `CC(=O)N1CC2(C1)CN(C(=O)CC[C@@H](C)[C@H]1CC[C@H]3[C@@H]4CC=C5C[C@@H](O)CC[C@]5(C)[C@H]4CC[C@]13C)C2` [Example 328, (4R)-4-[(1R,3aS,3bS,7S,9aR,9bS,11aR)-7-hydroxy-9a,11a-dimethyl-1H,2H,3H,3aH,3bH,4H,6H,7H,8H,9H,9aH,9bH,10H,11H,11aH-cyclopenta[a]phenanthren-1-yl]-1-{6-acetyl-2,6-diazaspiro[3.3]heptan-2-yl}pentan-1-one] displayed an IC50 of 250 to 1000 nM.

For `C[C@H](Oc1cnccc1CO)[C@H]1CC[C@H]2[C@@H]3CC=C4C[C@@H](O)CC[C@]4(C)[C@H]3CC[C@]12C` [Example 437, (3S,8S,9S,10R,13S,14S,17S)-17-((S)-1-((4-(hydroxymethyl)pyridin-3-yl)oxy)ethyl)-10,13-dim ethyl-2,3,4,7,8,9,10,11,12,13,14,15,16,17-tetradecahydro-1H-cyclopenta[a]phenanthren-3-ol], the 50% inhibitory concentration (IC50) was 250 to 1000 nM.

In the case of `C[C@H](CCC(=O)N1CCC[C@@H](Oc2ccncc2)C1)[C@H]1CC[C@H]2[C@@H]3CC=C4C[C@@H](O)CC[C@]4(C)[C@H]3CC[C@]12C` [Example 521, (R)-4-((3S,8S,9S,10R,13R,14S,17R)-3-hydroxy-10,13-dimethyl-2,3,4,7,8,9,10,11,12,13,14,15,16,17-tetradecahydro-1H-cyclopenta[a]phenanthren-17-yl)-1-((R)-3-(pyridin-4-yloxy)piperidin-1-yl)pentan-1-one], the IC50 is below 250 nM.

Regarding `C[C@H](Oc1ccc(CO)nc1)[C@H]1CC[C@H]2[C@@H]3CC=C4C[C@@H](O)CC[C@]4(C)[C@H]3CC[C@]12C` [Example 435, (3S,8S,9S,10R,13S,14S,17S)-17-((S)-1-((6-(hydroxymethyl)pyridin-3-yl)oxy)ethyl)-10,13-dim ethyl-2,3,4,7,8,9,10,11,12,13,14,15,16,17-tetradecahydro-1H-cyclopenta[a]phenanthren-3-ol], the IC50 lay within 250 to 1000 nM.

As to `CNC(=O)[C@H]1CCN(C(=O)CC[C@@H](C)[C@H]2CC[C@H]3[C@@H]4CC=C5C[C@@H](O)CC[C@]5(C)[C@H]4CC[C@]23C)C1` [Example 536, (S)-1-((R)-4-((3S,8S,9S,10R,13R,14S,17R)-3-hydroxy-10,13-dimethyl-2,3,4,7,8,9,10,11,12,13,14,15,16,17-tetradecahydro-1H-cyclopenta[a]phenanthren-17-yl)pentanoyl)-N-methylpyrrolidine-3-carboxamide], the IC50 lay within 250 to 1000 nM.

For `COC(=O)N1CCN(C(=O)NC[C@@H](C)[C@H]2CC[C@H]3[C@@H]4CC=C5C[C@@H](O)CC[C@]5(C)[C@H]4CC[C@]23C)CC1` [Example 467, Methyl 4-(((S)-2-((3S,8S,9S,10R,13S,14S,17R)-3-hydroxy-10,13-dimethyl-2,3,4,7,8,9,10,11,12,13,14,15,16,17-tetradecahydro-1H-cyclopenta[a]phenanthren-17-yl)propyl)carbamoyl)piperazine-1-carboxylate], the IC50 is below 250 nM.

`C[C@H](CCC(=O)N1CCC(O)(CC(F)(F)F)CC1)[C@H]1CC[C@H]2[C@@H]3CC=C4C[C@@H](O)CC[C@]4(C)[C@H]3CC[C@]12C` [Example 152, (R)-4-((3S,8S,9S,10R,13R,14S,17R)-3-hydroxy-10,13-dimethyl-2,3,4,7,8,9,10,11,12,13,14,15,16,17-tetradecahydro-1H-cyclopenta[a]phenanthren-17-yl)-1-(4-hydroxy-4-(2,2,2-trifluoroethyl)piperidin-1-yl) pentan-1-one]: the IC50 was below 250 nM.

For `CNC(=O)c1ccc(O[C@@H](C)[C@H]2CC[C@H]3[C@@H]4CC=C5C[C@@H](O)CC[C@]5(C)[C@H]4CC[C@]23C)cn1` [Example 438, 5-((S)-1-((3S,8S,9S,10R,13S,14S,17S)-3-hydroxy-10,13-dimethyl-2,3,4,7,8,9,10,11,12,13,14,15,16,17-tetradecahydro-1H-cyclopenta[a]phenanthren-17-yl)ethoxy)-N-methylpicolinamide], the IC50 was in the range of 250 to 1000 nM.

As for `C[C@H](CCC(=O)N1CC[C@H](C(=O)N(C)C)C1)[C@H]1CC[C@H]2[C@@H]3CC=C4C[C@@H](O)CC[C@]4(C)[C@H]3CC[C@]12C` [Example 537, (S)-1-((R)-4-((3S,8S,9S,10R,13R,14S,17R)-3-hydroxy-10,13-dimethyl-2,3,4,7,8,9,10,11,12,13,14,15,16,17-tetradecahydro-1H-cyclopenta[a]phenanthren-17-yl)pentanoyl)-N,N-dimethylpyrrolidine-3-carboxamide], the IC50 lay within 250 to 1000 nM.

`CCN(CC)C(=O)C(=O)O[C@@H](C)[C@H]1CC[C@H]2[C@@H]3CC=C4C[C@@H](O)CC[C@]4(C)[C@H]3CC[C@]12C` [Example 154, (1S)-1-[(1S,3aS,3bS,7S,9aR,9bS,11aS)-7-hydroxy-9a,11a-dimethyl-1H,2H,3H,3aH,3bH,4H,6H,7H,8H,9H,9aH,9bH,10H,11H,11aH-cyclopenta[a]phenanthren-1-yl]ethyl (diethylcarbamoyl)formate] came in with an IC50 below 250 nM.

`C[C@H](CCC(=O)N1CC[C@H](Nc2ccncc2)C1)[C@H]1CC[C@H]2[C@@H]3CC=C4C[C@@H](O)CC[C@]4(C)[C@H]3CC[C@]12C` [Example 530, (4R)-4-[(1R,3aS,3bS,7S,9aR,9bS,11aR)-7-hydroxy-9a,11a-dimethyl-1H,2H,3H,3aH,3bH,4H,6H,7H,8H,9H,9aH,9bH,10H,11H,11aH-cyclopenta[a]phenanthren-1-yl]-1-[(3S)-3-[(pyridin-4-yl)amino]pyrrolidin-1-yl]pentan-1-one]: the half-inhibitory concentration (IC50) is 250 to 1000 nM.

`C[C@H](CCC(=O)N1CC[C@H](NC(=O)c2ccncn2)C1)[C@H]1CC[C@H]2[C@@H]3CC=C4C[C@@H](O)CC[C@]4(C)[C@H]3CC[C@]12C` [Example 528, N—((S)-1-((R)-4-((3S,8S,9S,10R,13R,14S,17R)-3-hydroxy-10,13-dimethyl-2,3,4,7,8,9,10,11,12,13,14,15,16,17-tetradecahydro-1H-cyclopenta[a]phenanthren-17-yl)pentanoyl)pyrrolidin-3-yl)pyrimidine-4-carboxamide] returned an IC50 below 250 nM.

Consider `C[C@H](CCC(=O)N1CCC[C@H](Oc2cnn(C)c2)C1)[C@H]1CC[C@H]2[C@@H]3CC=C4C[C@@H](O)CC[C@]4(C)[C@H]3CC[C@]12C` [Example 517, (4R)-4-[(1R,3aS,3bS,7S,9aR,9bS,11aR)-7-hydroxy-9a,11a-dimethyl-1H,2H,3H,3aH,3bH,4H,6H,7H,8H,9H,9aH,9bH,10H,11H,11aH-cyclopenta[a]phenanthren-1-yl]-1-[(3S)-3-[(1-methyl-1H-pyrazol-4-yl)oxy]piperidin-1-yl]pentan-1-one], for which the IC50 is below 250 nM.

For `CC(=O)N1CCC(C(=O)N(C)CC[C@@H](C)[C@H]2CC[C@H]3[C@@H]4CC=C5C[C@@H](O)CC[C@]5(C)[C@H]4CC[C@]23C)CC1` [Example 408, 1-acetyl-N—((R)-3-((3S,8S,9S,10R,13R,14S,17R)-3-hydroxy-10,13-dimethyl-2,3,4,7,8,9,10,11,12,13,14,15,16,17-tetradecahydro-1H-cyclopenta[a]phenanthren-17-yl)butyl)-N-methylpiperidine-4-carboxamide], the IC50 was 250 to 1000 nM.

Broadly, the IC50 is the concentration that inhibits the measured activity by half. A high value points to weaker potency in that assay.
